This passage reports IC50, viability and MIC results from ChEMBL document CHEMBL3124777, “Synthesis and biological evaluation of thiazoline derivatives as new antimicrobial and anticancer agents” (Eur J Med Chem, 2014).

By IC50 is commonly meant the point on the concentration scale where inhibition reaches its midpoint. A low value points to higher potency. A word on the MIC: it is the lowest concentration that inhibits growth of the organism. Read a high MIC as a less susceptible organism.

Assay [1] concerns C6. The experiment in a line: Cytotoxicity against rat C6 cells after 24 hrs by MTT assay. The format is functional, cell-based. The note with it: C6, 24 h.
The subject of assay [2] is NIH3T3. The experiment in a line: Cytotoxicity against mouse NIH/3T3 cells after 24 hrs by MTT assay. The class given is cell-based. The note with it: NIH3T3, 24 h.
Assay [3] deals with C6. The experiment in a line: Cytotoxicity against rat C6 cells assessed as cell viability at 200 ug/ml after 24 hrs by MTT assay relative to control. The format is functional. As to conditions: C6, 24 h, read-out: Activity. Background: Tetrazolium dyes change colour on reduction, which living cells bring about.
In assay [4] the test system is C6. The experiment in a line: Cytotoxicity against rat C6 cells assessed as cell viability at 100 ug/ml after 24 hrs by MTT assay relative to control. The class given is functional. The note with it: C6, 24 h, read-out: Activity.
Assay [5] deals with C6. The experiment in a line: Cytotoxicity against rat C6 cells assessed as cell viability at 50 ug/ml after 24 hrs by MTT assay relative to control. As to conditions: C6, 24 h, read-out: Activity. The format is functional.
Assay [6] has as its system C6. The experiment in a line: Cytotoxicity against rat C6 cells assessed as cell viability at 25 ug/ml after 24 hrs by MTT assay relative to control. The class given is functional. The note with it: C6, 24 h, read-out: Activity.
In assay [7] the test system is C6. The experiment in a line: Cytotoxicity against rat C6 cells assessed as cell viability at 12 ug/ml after 24 hrs by MTT assay relative to control. The class given is functional. The note with it: C6, 24 h, read-out: Activity.
Assay [8] has as its system C6. The experiment in a line: Cytotoxicity against rat C6 cells assessed as cell viability at 6 ug/ml after 24 hrs by MTT assay relative to control. As to conditions: C6, 24 h, read-out: Activity. The class given is functional.
In assay [9] the test system is Candida albicans. The experiment in a line: Antimicrobial activity against Candida albicans ATCC 22019 after 18 to 24 hrs by microbroth dilution method. The class given is functional. (Broth dilution looks for growth in wells or tubes with falling amounts of substance.)
Assay [10] relates to Fusarium culmorum. The experiment in a line: Antimicrobial activity against wild type Fusarium culmorum after 48 to 72 hrs by microbroth dilution method. The class given is functional.
For assay [11], the system named is Fusarium verticillioides. The experiment in a line: Antimicrobial activity against Fusarium moniliforme NRRL 1866 after 48 to 72 hrs by microbroth dilution method. The class given is functional.
Assay [12] has as its system Fusarium solani. The experiment in a line: Antimicrobial activity against Fusarium solani NRRL 13414 after 48 to 72 hrs by microbroth dilution method. The format is functional.
In assay [13] the test system is Aspergillus ochraceus. The experiment in a line: Antimicrobial activity against Aspergillus ochraceus NRRL 3174 after 48 to 72 hrs by microbroth dilution method. The class given is functional.
Assay [14] relates to Trichoderma harzianum. The experiment in a line: Antimicrobial activity against Trichoderma harzianum NRRL 20565 after 48 to 72 hrs by microbroth dilution method. The class given is functional.
Assay [15] relates to Penicillium chrysogenum. The experiment in a line: Antimicrobial activity against Penicillium chrysogenum NRRL 1951 after 48 to 72 hrs by microbroth dilution method. The format is functional.
Assay [16] relates to Aspergillus parasiticus. The experiment in a line: Antimicrobial activity against Aspergillus parasiticus NRRL 465 after 48 to 72 hrs by microbroth dilution method. The format is functional.
Assay [17] has as its system Bacillus subtilis. The experiment in a line: Antimicrobial activity against Bacillus subtilis NRS-744 after 18 to 24 hrs by microbroth dilution method. The format is functional.
Assay [18] has as its system Micrococcus luteus. The experiment in a line: Antimicrobial activity against Micrococcus luteus NRLL B-4375 after 18 to 24 hrs by microbroth dilution method. The class given is functional.
Assay [19] relates to Pseudomonas aeruginosa. The experiment in a line: Antimicrobial activity against Pseudomonas aeruginosa […] after 18 to 24 hrs by microbroth dilution method. The class given is functional.
Assay [20] has as its system Escherichia coli. The experiment in a line: Antimicrobial activity against Escherichia coli ATCC 25922 after 18 to 24 hrs by microbroth dilution method. The class given is functional.
Assay [21] relates to Listeria monocytogenes. The experiment in a line: Antimicrobial activity against Listeria monocytogenes ATCC 7644 after 18 to 24 hrs by microbroth dilution method. The class given is functional.
In assay [22] the test system is Staphylococcus aureus. The experiment in a line: Antimicrobial activity against Staphylococcus aureus NRRL B-767 after 18 to 24 hrs by microbroth dilution method. The format is functional.

Molecules are shown by their SMILES. Values after ≈ are worked out from the molar mass of the structure shown.

On to `Cn1cnnc1SCC(=O)N/N=c1/scc(-c2ccccc2)n1-c1ccccc1`, for which the IC50 in assay [1] was 68.3 µg/mL (≈ 162 µM); in assay [2], 217 µg/mL (≈ 513 µM). The viability at 200 µg/mL in [3] came out at 35.5%. Also, in assay [4], the viability at 100 µg/mL stood at 38.6%. In addition, the viability at 50 µg/mL in assay [5] turned out to be 62.4%. The viability at 25 µg/mL in [6] was found to be 77.3%. For the same compound, the viability at 12 µg/mL in assay [7] worked out at 79.6%. Besides, the viability at 6 µg/mL in assay [8] is 90%. Further, the minimal inhibitory concentration (MIC) in assay [9] turned out to be 250 µg/mL (≈ 592 µM); in assay [10], 250 µg/mL (≈ 592 µM); in [11], 250 µg/mL (≈ 592 µM); in assay [12], 250 µg/mL (≈ 592 µM); in assay [13], 250 µg/mL (≈ 592 µM); in assay [14] it was 125 µg/mL (≈ 296 µM). The MIC in [15], in [16], in assay [17], in assay [18], in assay [19] and in assay [20] was 250 µg/mL (≈ 592 µM) each time. For the same compound, the MIC in [21] and in assay [22] was 250 µg/mL (≈ 592 µM) each time.
`Cc1ccc(-c2cs/c(=N/NC(=O)CSc3ncccn3)n2-c2ccccc2)cc1`: the half-inhibitory concentration (IC50) in assay [1] was 85 µg/mL (≈ 196 µM); in [2], above 500 µg/mL. Further, the viability at 200 µg/mL in assay [3] amounted to 43.7%. The viability at 100 µg/mL in [4] is 45.9%. Further, in assay [5], the viability at 50 µg/mL was found to be 64.4%. The viability at 25 µg/mL in [6] is 82.7%. Besides, the viability at 12 µg/mL in [7] worked out at 83%. Also, the viability at 6 µg/mL in assay [8] amounted to 93.2%. The minimal inhibitory concentration (MIC) in assay [9], in [10], in assay [11], in assay [12], in assay [13] and in assay [14] was 250 µg/mL (≈ 577 µM) in each case. Besides, the MIC in assay [15] worked out at 250 µg/mL (≈ 577 µM); in assay [16], 250 µg/mL (≈ 577 µM); in [17], 500 µg/mL (≈ 1150 µM); in [18] it was 250 µg/mL (≈ 577 µM); in assay [19], 250 µg/mL (≈ 577 µM); in [20], 250 µg/mL (≈ 577 µM). The MIC in assay [21] and in [22] was 250 µg/mL (≈ 577 µM) throughout.
Consider `Cc1nnc(SCC(=O)N/N=c2/scc(-c3ccccc3)n2-c2ccccc2)s1`, for which the figures for the IC50 in assay [1] and in [2] were above 200 µg/mL and 197 µg/mL (≈ 447 µM), respectively. In addition, the viability at 200 µg/mL in assay [3] is 59.2%. Also, the viability at 100 µg/mL in [4] is 61.8%. Besides, the viability at 50 µg/mL in assay [5] came out at 63.9%. In assay [6], the viability at 25 µg/mL amounted to 65.9%. Besides, the viability at 12 µg/mL in assay [7] amounted to 72.5%. In assay [8], the viability at 6 µg/mL is 72.4%. For the same compound, the minimal inhibitory concentration (MIC) in assay [9] amounted to 250 µg/mL (≈ 569 µM); in assay [10] it was 250 µg/mL (≈ 569 µM); in [11], 250 µg/mL (≈ 569 µM); in assay [12] it was 250 µg/mL (≈ 569 µM); in [13], 250 µg/mL (≈ 569 µM); in assay [14], 125 µg/mL (≈ 284 µM). Moreover, the MIC in [15] came to 250 µg/mL (≈ 569 µM); in [16], 250 µg/mL (≈ 569 µM); in assay [17], 500 µg/mL (≈ 1140 µM); in assay [18], 250 µg/mL (≈ 569 µM); in assay [19], 250 µg/mL (≈ 569 µM); in assay [20], 250 µg/mL (≈ 569 µM). Further, the MIC in assay [21] is 250 µg/mL (≈ 569 µM); in assay [22], 500 µg/mL (≈ 1140 µM).
Regarding `Cc1ccc(-c2cs/c(=N/NC(=O)CSc3nncn3C)n2-c2ccccc2)cc1`, the concentration for half-maximal inhibition (IC50) worked out at 56 µg/mL (≈ 128 µM) in [1] and 130 µg/mL (≈ 298 µM) in assay [2]. Besides, the viability at 200 µg/mL in assay [3] turned out to be 27.8%. Besides, the viability at 100 µg/mL in [4] was 39.6%. Besides, in assay [5], the viability at 50 µg/mL came out at 53.8%. In addition, in assay [6], the viability at 25 µg/mL worked out at 70.7%. In assay [7], the viability at 12 µg/mL stood at 72%. Besides, the viability at 6 µg/mL in assay [8] is 74.6%. For the same compound, the MIC in assay [9] was 125 µg/mL (≈ 286 µM); in assay [10], 250 µg/mL (≈ 573 µM); in assay [11], 250 µg/mL (≈ 573 µM); in [12], 250 µg/mL (≈ 573 µM); in assay [13], 250 µg/mL (≈ 573 µM); in assay [14] it was 125 µg/mL (≈ 286 µM). Further, the minimum inhibitory concentration (MIC) in assay [15] amounted to 250 µg/mL (≈ 573 µM); in assay [16], 250 µg/mL (≈ 573 µM); in assay [17], 250 µg/mL (≈ 573 µM); in [18], 125 µg/mL (≈ 286 µM); in assay [19] it was 250 µg/mL (≈ 573 µM); in assay [20] it was 125 µg/mL (≈ 286 µM). Also, the MIC in assay [21] and in assay [22] was 250 µg/mL (≈ 573 µM) in each case.
With `COc1ccc(-c2cs/c(=N/NC(=O)CSc3ncccn3)n2-c2ccccc2)cc1`, the IC50 in [1] is 102 µg/mL (≈ 226 µM); in assay [2] it was 450 µg/mL (≈ 1000 µM). Also, the viability at 200 µg/mL in assay [3] was determined as 37.6%. Further, the viability at 100 µg/mL in assay [4] is 51.5%. Besides, the viability at 50 µg/mL in [5] stood at 66.5%. Also, in assay [6], the viability at 25 µg/mL stood at 74%. Besides, the viability at 12 µg/mL in assay [7] turned out to be 78.4%. In [8], the viability at 6 µg/mL turned out to be 89.6%. Further, the MIC in assay [9], in assay [10], in assay [11], in [12], in [13] and in [14] was 250 µg/mL (≈ 556 µM) in each case. Moreover, the MIC in assay [15], in assay [16], in [17], in [18], in [19] and in assay [20] was 250 µg/mL (≈ 556 µM) throughout. The minimal inhibitory concentration (MIC) in assay [21] and in assay [22] was 250 µg/mL (≈ 556 µM) in each case.
